Data published in paper PMC6264731, “Chemo-Enzymatic Synthesis of Ester-Linked Docetaxel-Monosaccharide Conjugates as Water-Soluble Prodrugs” (Molecules, 2011).
Converted amounts (≈) assume the structure as drawn. Read-outs that look alike come from different tables or passages of the source.

How the values were obtained:
MCF-7 human cancer cells = test: MTT cytotoxicity assay in MCF-7 cells; assay type: cell-based; conditions: for IC50 MCF-7 cells: 24 h treatment
Procedure: (§1) The sensitivity of KB and MCF-7 cells to docetaxel or 4–6 was determined according to the previously reported method. Cells were diluted with culture medium to the seeding density (10^5 cells/mL), suspended in 96-well tissue culture plates (100 μL/well), preincubated at 37 °C for 4 h, and then treated for 24 h with docetaxel or 4–6 at various concentrations to obtain a dose–response curve for each compound. After incubation, 20 μL MTT solution (2.5 mg/mL) was added to each well and the plates were further incubated for 4 h. Absorbance at 570 nm was measured with a microplate reader model 450 (BIO-RAD). Dose-response curves were plotted on a semi-log scale as percentage of the cell numbers in control cultures not exposed to test compounds.

KB human cancer cells [1] = test: Hydrolysis of prodrugs by KB cells, release of docetaxel (HPLC); assay type: cell-based; conditions: 5 μmol compound, 20 mg KB cells in RPMI 1640, 37 °C, 24 h
Procedure: To a 5-mL vial containing RPMI 1640 medium (1 mL, Nissui Pharmaceutical Co. Ltd.) and KB cells (20 mg) was added 5 μmol of each compound. The mixture was incubated at 37 °C for 24 h. The cells and medium were separated by centrifugation at 10,000 g for 5 min. The cells were extracted with MeOH. MeOH extract was concentrated, and the residue was partitioned between H2O and CH2Cl2. The medium was extracted with CH2Cl2. The CH2Cl2 fractions were combined, concentrated, and analyzed by HPLC. The yield of docetaxel was calculated on the basis of the peak area from HPLC using a calibration curve provided by HPLC analyses of authentic docetaxel.

[2] = Water-solubility, stirred in water 24 h at 25 °C, HPLC quantification; assay type: physicochemical
Procedure: The mixture was centrifuged at 100,000 g for 30 min at 25 °C. The concentration of test compounds was estimated on the basis of their peak areas using calibration curves prepared by HPLC analyses of authentic samples.

KB human cancer cells [3] = test: MTT cytotoxicity assay in KB cells; assay type: cell-based; conditions: 24 h treatment
Procedure: as §1

Row | Conversion to docetaxel (hydrolysis by KB cells) (KB human cancer cells [1]) | solubility at 24 h [2] | Fold (water-solubility relative to docetaxel) ([2]; relative to docetaxel) | solubility at 24 h ([2]; thermodynamic from solid) | Molecule | IC50 MCF-7 cells (MCF-7 human cancer cells) | IC50 KB cells (KB human cancer cells [3]) | IC50 (MCF-7 human cancer cells; Homo sapiens, MCF7, 24 h treatment) | IC50 (KB human cancer cells [3]; Homo sapiens)
1 | 45% | 25.5 µM | – | – | 7-propionyldocetaxel 3''-O-β-D-galactopyranoside [Compound 5] | 28 µg/mL | 41 µg/mL | – | –
2 | 76% | 20.2 µM | – | – | 7-propionyldocetaxel 3''-O-β-D-xylopyranoside [Compound 6] | 12 µg/mL | 25 µg/mL | – | –
3 | – | – | 1 fold | 0.5 µM (≈ 0.404 µg/mL) | CC(=O)O[C@@]12CO[C@@H]1C[C@H](O)[C@@]1(C)C(=O)[C@H](O)C3=C(C)[C@@H](OC(=O)[C@H](O)[C@@H](NC(=O)OC(C)(C)C)c4ccccc4)C[C@@](O)([C@@H](OC(=O)c4ccccc4)[C@H]21)C3(C)C [Docetaxel] | – | – | 5 µg/mL (≈ 6.19 µM) | 12 µg/mL (≈ 14.9 µM)
